Results on one substance are retold here after patent US5443827A, “Fibrin-targeted inhibitors of thrombin” (President and Fellows of Harvard College, priority 1993, dated 1995).

Series [1] concerns the target T1, thrombin (Homo sapiens, UniProt P00734). In words: Fibrin-Sepharose assay (thrombin inhibition as a function of binding to immobilized fibrin). The format is biochemical. Particulars: 800 units applied. The protocol:
This assay is as described by Bode et al., J. Biol. Chem. 262:10819-10823, 1987, herein incorporated by reference, with the following modifications. For the purposes of assaying targeted anti-thrombin activity, trace labeling of fibrin-monomer is not necessary. 200 μl fibrin-Sepharose were incubated for 2.5 h at room temperature with defined amounts (by the S-2238 assay) of hirudin or hirudin-59D8-conjugate (hirudin-59D8-IgG or, alternatively, hirudin-59D8-Fab') in 100 μl of buffer. After washing the fibrin-Sepharose three times with 3 ml 0.15M NaCl, 200 μl S-2238 assay buffer and 40 μl (0.05 U) thrombin solution (1.25 U/ml) were added and incubated for 1 h at room temperature. Subsequently 100 μl of chromogenic substrate S-2238 were added, and the reaction was stopped after 25 min by addition of 100 μl 20% acetic acid. After centrifugation (5 min, 1,000×g), absorption of the supernatant was read at 405 nm. Hirudin activity was again detected as inhibition of thrombin activity and was expressed as % of total thrombin activity applied. […]

Series [2] has as its system fibrin deposition on the surface of a clot suspended in human plasma. Put plainly: Inhibition of thrombus growth in human plasma. The format is biochemical. The protocol:
The method of Runge (Runge et al., Biochemistry 27:1153-1157, 1988, herein incorporated by reference) was followed, with the following modifications. Fresh-frozen plasma obtained from 5 donors was pooled, aliquoted and refrozen. Before each experiment, plasma was ultracentrifuged at 30,000 rpm for 60 min in a Beckmann SW 40 rotor in order to obtain platelet-free plasma (platelet count less than 1,000 platelets/μl). Immediately before each experiment, the anti-thrombin activities of hirudin and hirudin conjugate were calibrated using the S-2238 assay (i.e., the inhibition of thrombin peptidase activity by hirudin and its conjugates was determined, and appropriate dilutions were made so that the inhibition of thrombin peptidase activity was identical for each sample). Platelet-free plasma clots were made by adding to plasma, in the following sequence: ^125 I-labelled human fibrinogen (20,000 cpm/ml plasma), 0.5M CaCl2 (final concentration 0.05M) and thrombin (0.5 NIH units/ml plasma). Immediately after the addition of thrombin, the solution was drawn into silastic tubing (i.d. 4 mm) and allowed to clot for 2 h at 37 ° C. The tubing was then cut into 1.8 cm sections yielding clots of approximately 0.2 ml. The clots were removed from the tubing, and each was placed in a plastic vial and washed three times with 2 ml 0.15M NaCl. The radioactivity level of each was then determined and only clots within 5% of the mean value were used for experiments.
After counting, clots were resuspended in 100 μl TBS (0.1M Tris, 0.1M NaCl, pH 7.4). Experiments were initiated by the addition of 100 μl hirudin or conjugate solution containing defined amounts of anti-thrombin activity. […] At predetermined intervals, clots were removed from the test tube, washed three times with 2 ml 0.15M NaCl and assayed for radioactivity. Clots incubated without thrombin inhibitor (NaCl-controls) often could not be quantitatively removed from the incubation vial because of complete clotting of the assay mixture. […]

The target of series [3] is T1, thrombin. Put plainly: β-Peptide assay (thrombin inhibition as a function of binding to immobilized β-peptide). The format is biochemical. The following applies: fitted parameter ± SD. The protocol:
96-well microtiter plates were coated overnight at 4° C. with β-peptide. 100 μl coating buffer (20 mM Tris, 50 mMNaCl, 1 mM CaCl2, 1 mM MgC2, pH 7.4) containing 0.005 mg β-peptide were applied to each well. After coating, the microtiter plate was first washed 5 times with coating buffer supplemented with 0.05% Tween 20 and then three times with water. Free binding sites were blocked overnight at 4° C. by the addition of 250 μl bovine serum albumin (2% w/v in coating buffer) per well. […]
After washing 7 times with modified coating buffer (20 mM Tris, 0.5 M NaCl2, 1 mM CaCl2, 1 mM MgCl2, 0.2% Tween 20, pH 7.4) and three times with water, 100 μl of assay buffer (20 mMNaHPO4, 0.15M NaCl, 0.1% BSA, pH 7.4) were applied per well and 20 μl (1.25 U/ml) of thrombin solution were allowed to incubate for 1 h at room temperature. Then 50 μl of chromogenic substrate (S-2238 at 0.83 mg/ml) were applied and after 20 minutes, the reaction was stopped by addition of 50 μl of 20% acetic acid, and the resulting absorption read at 405 nm. Hirudin activity was detected as inhibition of thrombin activity and was expressed as % inhibition of total thrombin activity applied. […]

Series [4] deals with T1, thrombin. The following applies: r-Hirudin as obtained from Knoll AG; cited from earlier work.
Series [5] has as its system fibrin formation on the surface of a plasma clot. In words: Inhibition of thrombus growth in a fibrinogen solution. The format is biochemical, human. The following applies: for 3 h; FIG. 4A. The procedure: The method of Runge (Runge et al., Biochemistry 27:1153-1157, 1988, herein incorporated by reference) was followed, with the following modifications. Fresh-frozen plasma obtained from 5 donors was pooled, aliquoted and refrozen. Before each experiment, plasma was ultracentrifuged at 30,000 rpm for 60 min in a Beckmann SW 40 rotor in order to obtain platelet-free plasma (platelet count less than 1,000 platelets/μl). Immediately before each experiment, the anti-thrombin activities of hirudin and hirudin conjugate were calibrated using the S-2238 assay (i.e., the inhibition of thrombin peptidase activity by hirudin and its conjugates was determined, and appropriate dilutions were made so that the inhibition of thrombin peptidase activity was identical for each sample). […] The radioactivity level of each was then determined and only clots within 5% of the mean value were used for experiments.
After counting, clots were resuspended in 100 μl TBS (0.1M Tris, 0.1M NaCl, pH 7.4). […] At predetermined intervals, clots were removed from the test tube, washed three times with 2 ml 0.15M NaCl and assayed for radioactivity. Clots incubated without thrombin inhibitor (NaCl-controls) often could not be quantitatively removed from the incubation vial because of complete clotting of the assay mixture. […]

For hirudin, the thrombin inhibition on thrombin [1] was 32.3%. In addition, the “fibrin deposition lower than NaCl control” value in series [2] (at 10 ATU/ml, FIG. 6A) is 17 µg; in series [2] (at 100 ATU/ml, p=0.0001) it was 112 µg. Moreover, the “fibrin deposition compared with the mixture at 9 ATU/ml” value in series [2] (hirudin at 44 ATU/ml, p=0,003, FIG. 7) is on record as “lower”. In addition, at thrombin [3] (FIG. 2A), the “B1, ultimate thrombin inhibition” value stood at 4.3±0.5%. Besides, the “ultimate inhibition (B1)” value on thrombin [3] (FIG. 2B) is reported as 0%. For the same substance, the specific activity with thrombin [4] is reported as 17,000 anti-thrombin units (ATU)/mg. Moreover, the “concentration giving complete inhibition of fibrin formation” value in series [5] was 80 ATU/ml.
